EP0560274B1, “Antiherpes peptide derivatives having a ureido N-terminus” (priority 1992, dated 1993)
pEC50: −log10 of the molar value. *1 amine or outer side, *2 acyl side, *3 side chain or, on linkers, in order; H or OH if unused. Where a SMILES comes first, the peptide text is derived from it. [ ]: non-standard residue; d: D form. The star is where a group is joined. Asp(3,3-(CH2)4) = N[C@H](C(=O)O)C1(C(=O)O)CCCC1; tBuAla = CC(C)(C)C[C@H](N)C(=O)O; Tle = CC(C)(C)[C@H](N)C(=O)O; NH(3-pentyl) = CCC(CC)N*; Pyrrolidide = C1CCN(*)C1; CO = O=C([*:1])[*:2]

test system: Herpes Simplex Virus (HSV-2); assay type: cell-based; conditions: 29 h
Experimental: BHK-21/C13 cells (ATCC CCL 10) are incubated for two days in 150 cm^2 T-flasks (1.5 x 10^6 cells/flask) with alpha-MEM medium (Gibco Canada Inc., Burlington, Ontario, Canada) supplemented with 8% (v/v) fetal bovine serum (FBS, Gibco Canada Inc.). The cells are trypsinized and then transferred to fresh media in a 24 well plate to give 2.5 x 10^5 cells in 750 µL of media per well. The cells are incubated at 37° for a period of 6 h to allow them to adhere to the plate. Thereafter, the cells are washed once with 500 µL of alpha-MEM supplemented with 0.5% (v/v) FBS and then incubated with 750 µL of the same media (low serum) for 3 days. After this period of serum starvation, the low serum medium is removed and the cells are incubated in 500 µL of BBMT for 2 to 3 hours. {BBMT medium is described by P. Brazeau et al., Proc. Natl. Acad. Sci. USA, 79, 7909 (1982).} Thereafter, the cells are infected with HSV-2 (multiplicity of infection = 0.02 PFU/cell) in 100 µL of BBMT medium. (Note: The HSV-2 used was strain HG-52, see Y. Langelier and G. Buttin, J. Gen. Virol., 57, 21 (1981); the virus was stored at -80°.) Following 1 h of virus adsorption at 37°, the media is removed and the cells are washed with BBMT (3 X 250 µL). The cells in each well are incubated with or without (control) appropriate concentrations of the test agent dissolved in 200 µL of BBMT medium. After 29 h of incubation at 37°, the infected cells are harvested by first freezing the plate at -80°, followed by thawing. The cells in each well are scraped off the surface of the well with the help of the melting ice fragments. After complete thawing, the cell suspensions are collected and each well is rinsed with 150 µL of BBMT medium. The viral sample (suspension plus washing) is sonicated gently for 4 min at 4°. Cell debris are removed by centrifugation (1000 times gravity for 10 minutes at 4°). The supernatant is collected and stored at -80° until determination of viral titer.
Viral titration was performed by a modification of the colorimetric assay method of M. Langlois et al., Journal of Biological Standardization, 14, 201 (1986).
More specifically, in a similar manner as described above, BHK-21/C13 cells are trypsinized and transferred to fresh media in a 96 well microtiter plate to give 20,000 cells in 100 µL of media per well. The cells in the prepared plate are incubated at 37° for, 2 h. During that time, the viral sample is thawed and sonicated gently for 15 seconds, and log dilutions of the sample are prepared (1/5 sequential: 50 µL of the sample plus 200 µL of BBMT medium, sequential dilutions being done with a multichannel pipette.
On completion of the above 2 hour incubation of the BHK-21/C13 cells, the media is replaced with alpha-MEM medium supplemented with 3% (v/v) FBS. The cells are now ready to be infected with the various sample dilutions of virus. Aliquots (50 µL) of the various dilutions are transferred into the appropriate wells of the plate. The resulting infected cells are incubated for 2 days at 37°. Then 50 µL of a 0.15% (v/v) solution of neutral red dye in Hank's Balanced Salt Solution (pH 7.3, Gibco Canada Inc.) is added to each well. The prepared plate is incubated for 45 min at 37°. Medium from each well is then aspirated and the cells are washed once with 200 µL of Hank's Balanced Salt Solution. After the wash, the dye is released from the cells by the addition of 100 µL of a 1:1 mixture of 0.1 M Sorensen's citrate buffer (pH 4.2) and ethanol. {Sorensen's citrate buffer is prepared as follows: Firstly, a 0.1 M disodium citrate solution is prepared by dissolving citric acid monohydrate (21 g) in 1 N aqueous NaOH (200 mL) and adding sufficient filtered H2O to make 1 L. Secondly, the 0.1 M disodium citrate solution (61.2 mL) is mixed with 0.1 N aqueous HCl (38.8 mL) and the pH of the resulting solution is adjusted to 4.2 if necessary.} The mixture in the wells is subjected to a gentle vortex action to ensure proper mixing.

SMILES	pEC50
CCC(CC)NC(=O)N[C@H](C(=O)N[C@@H](CC(=O)N1CCCC1)C(=O)N[C@H](C(=O)N[C@@H](CC(C)(C)C)C(=O)O)C1(C(=O)O)CCCC1)C(C)(C)C [Et2CHNHC(O)-Tbg-Asp(pyrrolidino)-Asp(cyPn)-γMeLeu-OH] ({NH(3-pentyl)-CO}-[Tle]D(Pyrrolidide)[Asp(3,3-(CH2)4)][tBuAla]-OH)	3.74
CCC(CC)NC(=O)N[C@H](C(=O)N[C@@H](CC(=O)N1CCCC1)C(=O)N[C@H](C(=O)NCCC(C)(C)C)C1(C(=O)O)CCCC1)C(C)(C)C [Et2CHNHC(O)-Tbg-Asp(pyrrolidino)-Asp(cyPn)-NHCH2CH2CMe3]	3.46
CCCC(C)(CCC)NC(=O)N[C@H](C(=O)N[C@@H](CC(=O)N1CCCC1)C(=O)N[C@H](C(=O)NCC(C)(C)C)C1(C(=O)O)CCCC1)C(C)(C)C [MePr2CNHC(O)-Tbg-Asp(pyrrolidino)-Asp(cyPn)-NHCH2CMe3]	4.08

The remaining lines, values ahead:

pEC50	SMILES
4.26	CCCC(CCC)NC(=O)N[C@H](C(=O)N[C@@H](CC(=O)N1CCCC1)C(=O)N[C@H](C(=O)N[C@H](C)C(C)(C)C)C1(C(=O)O)CCCC1)C(C)(C)C [Pr2CHNHC(O)-Tbg-Asp(pyrrolidino)-Asp(cyPn)-NHCH-(R)-CH(Me)CMe3]
3.85	CCCC(CCC)NC(=O)N[C@H](C(=O)N[C@@H](CC(=O)C1CCCCC1)C(=O)N[C@H](C(=O)NCC(C)(C)C)C1(C(=O)O)CCCC1)C(C)(C)C [Pr2CHNHC(O)-Tbg-NHCH(2-cyclohexyl-2-oxoethyl)C(O)-Asp(cyPn)-NHCH2CMe3]
